Assay results from US10597388B2, “Pyridazinone herbicides” (FMC CORPORATION, priority 2014, dated 2020).

What was measured:
Test in all cases: Test E greenhouse herbicide test, pre- and postemergence
Assay type in all cases: in vivo
Details in all cases: Postemergence
[1] = tested on: Italian ryegrass (Lolium multiflorum)
How it was run: (§1)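 Scores (0–100, visual, vs controls) reflect greenhouse growth of 14 to 21 d after treatment. Application was pre-emergence to silt loam or post-emergence at the 1- to 4-leaf stage.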

[2] = tested on: arrowleaf sida (Sida rhombifolia)
How it was run: as §1

[3] = tested on: beggarticks (hairy beggarticks, Bidens pilosa)
How it was run: as §1

corn (Zea mays) = tested on: corn (Zea mays)
How it was run: as §1

[4] = tested on: field bindweed (Convolvulus arvensis)
How it was run: as §1

[5] = tested on: horseweed (Conyza canadensis)
How it was run: as §1

[6] = tested on: panicum, fall (fall panicum, Panicum dichotomiflorum)
How it was run: as §1

[7] = tested on: ragweed (common ragweed, Ambrosia elatior)
How it was run: as §1

[8] = tested on: sandbur (southem sandbur, Cenchrus echinatus)
How it was run: as §1

[9] = 62 g ai/ha, scale 0 to 100 (0 no effect, 100 complete control)
[10] = 125 g ai/ha, scale 0 to 100 (0 no effect, 100 complete control)
[11] = 16 g ai/ha, visual, scale 0 no effect to 100 complete control
[12] = 31 g ai/ha, visual, scale 0 no effect to 100 complete control
[13] = 250 g ai/ha, scale 0 to 100 (0 no effect, 100 complete control)

Compound	Plant response rating, Ryegrass, Italian [1, 9]	Plant response rating, Ryegrass, Italian [1, 10]	Plant response rating, Ryegrass, Italian [1, 12]	Plant response rating, Arrowleaf Sida [2, 9]	Plant response rating, Arrowleaf Sida [2, 10]	Plant response rating, Arrowleaf Sida [2, 12]	Plant response rating, Beggarticks [3, 9]	Plant response rating, Beggarticks [3, 10]	Plant response rating, Beggarticks [3, 12]	Plant response rating, Corn (corn (Zea mays); [9])	Plant response rating, Corn (corn (Zea mays); [10])	Plant response rating, Corn (corn (Zea mays); [12])	Plant response rating, Field Bindweed [4, 9]	Plant response rating, Field Bindweed [4, 10]	Plant response rating, Field Bindweed [4, 12]	Plant response rating, Horseweed [5, 9]	Plant response rating, Horseweed [5, 10]	Plant response rating, Horseweed [5, 12]	Plant response rating, Panicum, Fall [6, 9]	Plant response rating, Panicum, Fall [6, 10]	also measured
CC(=O)Oc1c(C)nn(C)c(=O)c1-c1c(C)cc(C)c2ccccc12 [Compound 99]	70	80	50	50	60	30	100	95	80	0	0	0	70	80	60	60	75	50	50	70	Plant response rating, Ryegrass, Italian [1, 11]: 40; Plant response rating, Arrowleaf Sida [2, 11]: 10; Plant response rating, Beggarticks [3, 11]: 70; Plant response rating, Corn (corn (Zea mays); [11]): 0; Plant response rating, Field Bindweed [4, 11]: 50; Plant response rating, Horseweed [5, 11]: 40; Plant response rating, Panicum, Fall [6, 11]: 20; Plant response rating, Panicum, Fall [6, 12]: 30; Plant response rating, Ragweed [7, 9]: 80; Plant response rating, Ragweed [7, 10]: 90; Plant response rating, Ragweed [7, 11]: 50; Plant response rating, Ragweed [7, 12]: 75; Plant response rating, Sandbur [8, 10]: 40; Plant response rating, Sandbur [8, 11]: 20; Plant response rating, Sandbur [8, 12]: 30
Cc1nn(C)c(=O)c(-c2cccc3ccc(Br)cc23)c1O [Compound 126]	80	85	70	80	100	75	100	100	100	10	5	0	90	95	85	75	85	70	35	30	Plant response rating, Ryegrass, Italian [1, 13]: 90; Plant response rating, Arrowleaf Sida [2, 13]: 85; Plant response rating, Beggarticks [3, 13]: 100; Plant response rating, Corn (corn (Zea mays); [13]): 5; Plant response rating, Field Bindweed [4, 13]: 100; Plant response rating, Horseweed [5, 13]: 80; Plant response rating, Panicum, Fall [6, 13]: 35; Plant response rating, Panicum, Fall [6, 12]: 10; Plant response rating, Ragweed [7, 9]: 80; Plant response rating, Ragweed [7, 10]: 100; Plant response rating, Ragweed [7, 13]: 100; Plant response rating, Ragweed [7, 12]: 70; Plant response rating, Sandbur [8, 10]: 40; Plant response rating, Sandbur [8, 13]: 40; Plant response rating, Sandbur [8, 12]: 0
